Key:
[1] = compound: NC(=O)CCCCC1CCSS1 [lipoamide]; experiment: thermal stability z-score vs DMSO; higher = more thermally stabilized by treatment; conditions: HeLa, lipoamide concentration 100 µM
Description: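 Cellular thermal proteome profiling in HeLa cells. Cells were treated with 100 µM lipoamide for 1 h, with or without 1 mM arsenate for a further 1 h, then heated to ten temperatures (37-66.3 °C), and soluble protein was quantified by TMT mass spectrometry relative to 0.1% DMSO controls. The thermal stability score (sum of log2 fold changes minus the abundance score) was transformed to a z-score; mean of n = 3 experiments.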

[2] = compound: O=[As]([O-])(O)O.[K+] [potassium arsenate]; experiment: as above; conditions: HeLa; arsenate concentration 1 mM
Description: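 Cellular thermal proteome profiling in HeLa cells treated with 1 mM arsenate for 1 h (DMSO pretreatment), heated to ten temperatures (37-66.3 °C). Soluble protein was quantified by TMT mass spectrometry relative to DMSO controls; the thermal stability score was transformed to a z-score; mean of n = 3 experiments.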

[3] = arsenate co-treatment: 1 mM arsenate 1 h
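Further: each temperature applied for 3 min, abundance score taken as mean log2 fold change at the two lowest temperatures, z-score obtained by mean subtraction and division by SD.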

Sequence of UniProt Q9Y5Q9 (Q9Y5Q9 whole entry): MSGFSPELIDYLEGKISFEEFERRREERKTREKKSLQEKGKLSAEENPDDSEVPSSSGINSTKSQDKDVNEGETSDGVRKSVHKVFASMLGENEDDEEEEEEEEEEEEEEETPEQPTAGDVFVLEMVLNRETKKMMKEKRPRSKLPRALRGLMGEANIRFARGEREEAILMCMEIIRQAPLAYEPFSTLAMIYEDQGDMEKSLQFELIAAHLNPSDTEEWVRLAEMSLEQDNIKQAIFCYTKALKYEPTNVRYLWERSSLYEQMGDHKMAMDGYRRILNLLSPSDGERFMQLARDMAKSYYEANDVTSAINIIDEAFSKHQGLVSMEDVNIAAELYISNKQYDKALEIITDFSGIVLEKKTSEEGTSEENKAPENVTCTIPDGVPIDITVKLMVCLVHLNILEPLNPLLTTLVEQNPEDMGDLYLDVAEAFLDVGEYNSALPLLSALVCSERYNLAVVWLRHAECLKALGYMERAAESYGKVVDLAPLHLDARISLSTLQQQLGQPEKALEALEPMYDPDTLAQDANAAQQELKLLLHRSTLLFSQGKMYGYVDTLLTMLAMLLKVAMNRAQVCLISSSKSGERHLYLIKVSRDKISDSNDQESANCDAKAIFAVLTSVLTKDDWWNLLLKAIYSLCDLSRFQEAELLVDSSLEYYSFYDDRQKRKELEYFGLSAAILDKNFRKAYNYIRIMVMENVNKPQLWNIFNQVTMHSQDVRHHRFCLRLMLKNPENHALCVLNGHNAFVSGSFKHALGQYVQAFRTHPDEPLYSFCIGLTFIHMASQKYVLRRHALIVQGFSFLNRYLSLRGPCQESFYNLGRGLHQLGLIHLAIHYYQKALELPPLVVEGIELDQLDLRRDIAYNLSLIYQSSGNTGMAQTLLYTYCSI
Sequence of UniProt Q9BX10 (Q9BX10 whole entry): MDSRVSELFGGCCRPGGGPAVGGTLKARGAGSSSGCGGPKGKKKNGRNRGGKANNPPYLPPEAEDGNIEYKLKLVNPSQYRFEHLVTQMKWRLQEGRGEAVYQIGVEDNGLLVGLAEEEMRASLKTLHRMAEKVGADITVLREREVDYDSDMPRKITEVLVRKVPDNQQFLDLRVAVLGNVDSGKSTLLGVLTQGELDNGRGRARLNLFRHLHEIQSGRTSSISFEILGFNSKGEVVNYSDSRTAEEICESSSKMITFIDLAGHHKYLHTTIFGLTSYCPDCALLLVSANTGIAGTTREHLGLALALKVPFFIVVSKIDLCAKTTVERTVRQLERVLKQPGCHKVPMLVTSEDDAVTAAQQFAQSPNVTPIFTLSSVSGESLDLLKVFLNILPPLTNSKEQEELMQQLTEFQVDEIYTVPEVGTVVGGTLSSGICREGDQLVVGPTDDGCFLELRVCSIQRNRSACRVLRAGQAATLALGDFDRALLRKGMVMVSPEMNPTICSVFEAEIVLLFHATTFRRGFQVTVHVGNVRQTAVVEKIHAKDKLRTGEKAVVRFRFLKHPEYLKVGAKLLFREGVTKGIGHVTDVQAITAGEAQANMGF
Sequence of UniProt Q4G148 (Q4G148 whole entry): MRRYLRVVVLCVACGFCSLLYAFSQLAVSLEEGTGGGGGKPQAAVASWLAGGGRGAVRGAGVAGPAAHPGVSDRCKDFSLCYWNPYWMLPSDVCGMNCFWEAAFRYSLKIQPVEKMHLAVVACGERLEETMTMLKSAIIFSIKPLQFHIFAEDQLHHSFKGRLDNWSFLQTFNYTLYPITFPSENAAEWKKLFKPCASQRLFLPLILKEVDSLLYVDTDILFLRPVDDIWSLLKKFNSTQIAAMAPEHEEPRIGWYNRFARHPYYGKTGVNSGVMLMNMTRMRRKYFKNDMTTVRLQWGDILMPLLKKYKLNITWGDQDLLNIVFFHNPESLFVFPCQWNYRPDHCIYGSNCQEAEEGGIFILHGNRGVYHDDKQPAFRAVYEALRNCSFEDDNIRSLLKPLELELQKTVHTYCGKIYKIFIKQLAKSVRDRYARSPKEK
Sequence of UniProt Q9NYZ3 (Q9NYZ3 whole entry): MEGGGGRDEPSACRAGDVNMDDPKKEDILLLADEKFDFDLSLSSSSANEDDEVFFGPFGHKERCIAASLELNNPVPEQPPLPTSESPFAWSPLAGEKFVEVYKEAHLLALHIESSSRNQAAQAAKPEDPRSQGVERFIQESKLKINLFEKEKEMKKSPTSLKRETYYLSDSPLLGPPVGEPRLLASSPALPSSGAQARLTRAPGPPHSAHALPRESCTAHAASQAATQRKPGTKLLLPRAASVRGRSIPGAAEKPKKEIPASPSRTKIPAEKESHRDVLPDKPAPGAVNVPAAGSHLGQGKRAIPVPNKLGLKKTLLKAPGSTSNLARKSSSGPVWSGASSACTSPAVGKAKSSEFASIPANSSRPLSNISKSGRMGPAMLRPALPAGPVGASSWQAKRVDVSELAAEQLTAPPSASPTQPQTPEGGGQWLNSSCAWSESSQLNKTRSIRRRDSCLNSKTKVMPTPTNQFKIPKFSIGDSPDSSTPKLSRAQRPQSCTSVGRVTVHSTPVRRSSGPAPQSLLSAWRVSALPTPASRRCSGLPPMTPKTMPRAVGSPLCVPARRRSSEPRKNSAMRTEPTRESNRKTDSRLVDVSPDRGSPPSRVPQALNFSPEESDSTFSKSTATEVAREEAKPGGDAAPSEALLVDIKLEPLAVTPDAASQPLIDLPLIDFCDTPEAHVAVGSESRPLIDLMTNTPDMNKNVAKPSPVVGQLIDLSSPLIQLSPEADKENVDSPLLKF
Sequence of UniProt P49590 (P49590 whole entry): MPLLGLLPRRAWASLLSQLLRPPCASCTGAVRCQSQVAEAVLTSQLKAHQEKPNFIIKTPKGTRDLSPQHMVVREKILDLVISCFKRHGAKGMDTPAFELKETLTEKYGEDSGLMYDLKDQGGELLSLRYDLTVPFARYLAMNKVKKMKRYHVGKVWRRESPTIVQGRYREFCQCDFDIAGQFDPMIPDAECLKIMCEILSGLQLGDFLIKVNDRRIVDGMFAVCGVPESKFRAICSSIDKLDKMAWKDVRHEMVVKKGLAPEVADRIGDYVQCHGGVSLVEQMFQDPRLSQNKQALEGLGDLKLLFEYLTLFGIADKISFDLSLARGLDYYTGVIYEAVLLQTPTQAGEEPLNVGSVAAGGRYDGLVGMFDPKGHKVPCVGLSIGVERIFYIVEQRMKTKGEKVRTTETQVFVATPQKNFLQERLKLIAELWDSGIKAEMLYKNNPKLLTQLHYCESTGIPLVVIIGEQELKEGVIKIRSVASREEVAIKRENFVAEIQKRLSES
Sequence of UniProt Q68CZ6 (Q68CZ6 whole entry): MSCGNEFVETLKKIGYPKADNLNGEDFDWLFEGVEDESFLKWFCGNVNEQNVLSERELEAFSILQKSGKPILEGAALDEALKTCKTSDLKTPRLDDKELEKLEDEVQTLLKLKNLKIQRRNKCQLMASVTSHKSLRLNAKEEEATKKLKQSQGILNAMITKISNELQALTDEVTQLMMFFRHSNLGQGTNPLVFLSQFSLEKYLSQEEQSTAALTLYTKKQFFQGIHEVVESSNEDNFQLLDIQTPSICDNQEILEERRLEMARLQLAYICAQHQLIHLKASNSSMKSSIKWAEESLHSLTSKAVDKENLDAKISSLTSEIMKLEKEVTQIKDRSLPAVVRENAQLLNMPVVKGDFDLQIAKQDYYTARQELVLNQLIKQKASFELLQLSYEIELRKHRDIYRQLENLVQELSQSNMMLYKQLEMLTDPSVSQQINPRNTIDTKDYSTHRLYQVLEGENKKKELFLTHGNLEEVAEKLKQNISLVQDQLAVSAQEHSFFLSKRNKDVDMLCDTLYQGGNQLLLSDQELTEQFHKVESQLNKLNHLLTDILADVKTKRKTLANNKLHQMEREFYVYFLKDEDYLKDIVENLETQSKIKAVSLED
Sequence of UniProt B0YJ81 (B0YJ81 whole entry): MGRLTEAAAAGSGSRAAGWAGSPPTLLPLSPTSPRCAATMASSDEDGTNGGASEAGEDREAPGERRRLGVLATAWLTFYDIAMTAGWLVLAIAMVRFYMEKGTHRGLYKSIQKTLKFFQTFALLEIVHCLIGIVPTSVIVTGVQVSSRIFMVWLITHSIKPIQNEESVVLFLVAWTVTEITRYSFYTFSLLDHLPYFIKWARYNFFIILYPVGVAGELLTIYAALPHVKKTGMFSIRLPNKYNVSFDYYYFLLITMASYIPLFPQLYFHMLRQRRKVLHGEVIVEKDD
Sequence of UniProt Q969F1 (Q969F1 whole entry): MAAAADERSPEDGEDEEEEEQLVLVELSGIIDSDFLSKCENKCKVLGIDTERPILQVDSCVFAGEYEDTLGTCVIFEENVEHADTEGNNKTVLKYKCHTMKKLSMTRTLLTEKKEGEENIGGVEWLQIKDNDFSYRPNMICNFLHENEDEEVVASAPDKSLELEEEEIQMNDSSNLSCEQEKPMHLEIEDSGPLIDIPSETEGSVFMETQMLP
Sequence of UniProt P07305 (P07305 whole entry): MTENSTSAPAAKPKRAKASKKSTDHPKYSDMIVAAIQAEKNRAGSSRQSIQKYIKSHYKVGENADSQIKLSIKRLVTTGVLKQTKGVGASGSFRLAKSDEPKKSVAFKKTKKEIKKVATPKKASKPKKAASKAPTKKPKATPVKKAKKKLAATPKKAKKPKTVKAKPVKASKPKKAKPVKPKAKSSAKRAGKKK
Sequence of UniProt P55084 (P55084 whole entry): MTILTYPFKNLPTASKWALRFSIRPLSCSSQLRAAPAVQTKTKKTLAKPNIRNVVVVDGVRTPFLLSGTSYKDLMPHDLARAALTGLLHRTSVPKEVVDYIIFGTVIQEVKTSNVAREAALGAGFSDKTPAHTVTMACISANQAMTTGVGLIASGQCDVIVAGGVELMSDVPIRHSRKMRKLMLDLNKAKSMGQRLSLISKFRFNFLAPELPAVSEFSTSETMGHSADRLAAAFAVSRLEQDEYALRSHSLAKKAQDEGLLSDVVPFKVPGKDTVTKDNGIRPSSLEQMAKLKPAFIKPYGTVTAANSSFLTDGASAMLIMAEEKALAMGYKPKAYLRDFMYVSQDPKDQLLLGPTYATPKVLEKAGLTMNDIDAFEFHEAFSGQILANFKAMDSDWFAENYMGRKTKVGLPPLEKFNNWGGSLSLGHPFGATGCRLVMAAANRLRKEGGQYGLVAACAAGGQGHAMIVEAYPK

Target	thermal stability z-score [1, 3]	thermal stability z-score ([1]; arsenate co-treatment: none)	thermal stability z-score [2]
GTF2H2|GTF2H2C	0.00796	-0.0811	-0.166
GTF2H3 (UniProt Q13889)	0.0675	-0.229	-0.106
GTF2H4 (UniProt Q92759)	0.108	0.112	0.148
GTF2I (UniProt P78347)	-0.117	0.0929	-0.472
GTF3A (UniProt Q92664)	-0.654	-0.754	-1.35
GTF3C1 (UniProt Q12789)	0.0666	-0.0357	-0.534
GTF3C2 (UniProt Q8WUA4)	0.112	0.0176	-0.411
GTF3C3 (UniProt Q9Y5Q9)	-0.0672	0.0153	-0.461
GTF3C4 (UniProt Q9UKN8)	0.237	0.0733	-1.21
GTF3C5 (UniProt Q9Y5Q8)	0.0669	0.0127	-0.367
GTF3C6 (UniProt Q969F1)	0.05	-0.0491	-0.175
GTPBP1 (UniProt O00178)	-0.325	-0.107	0.493
GTPBP2 (UniProt Q9BX10)	0.122	0.0371	0.0134
GTPBP3 (UniProt Q969Y2)	0.357	0.272	0.354
GTPBP4 (UniProt Q9BZE4)	-0.6	0.00531	-1
GTPBP6 (UniProt O43824)	0.0509	-0.133	0.043
GTPBP8 (UniProt Q8N3Z3)	0.145	0.0392	-0.0237
GTPBP10 (UniProt A4D1E9)	-0.946	0.2	0.522
GTSE1 (UniProt Q9NYZ3)	-0.0607	0.0853	-0.213
GUK1 (UniProt Q16774)	0.321	0.714	0.29
GUSB (UniProt P08236)	-0.178	-0.261	0.885
GXYLT1 (UniProt Q4G148)	-0.938	-0.906	0.387
GYG1 (UniProt P46976)	-0.215	0.14	-0.536
GYS1 (UniProt P13807)	0.31	0.22	0.706
H1F0 (UniProt P07305)	0.135	-0.22	-0.062
H1FX (UniProt Q92522)	-0.468	-0.893	-1.7
H2AFX (UniProt P16104)	-0.033	-0.0884	-0.415
H2AFY (UniProt O75367)	0.112	0.0481	0.327

Target	thermal stability z-score [1, 3]	thermal stability z-score ([1]; arsenate co-treatment: none)	thermal stability z-score [2]
H2AFZ|H2AFV	1.28	1.33	-1.63
H6PD (UniProt O95479)	-1.51	-1.8	-0.472
HABP4 (UniProt Q5JVS0)	0.171	-0.0888	-0.0745
HACD1 (UniProt B0YJ81)	-0.754	-1.15	-0.388
HACD2 (UniProt Q6Y1H2)	-0.673	-0.4	0.798
HACD3 (UniProt Q9P035)	-1.92	-0.722	-1.47
HACL1 (UniProt Q9UJ83)	0.259	-0.331	0.107
HADH (UniProt Q16836)	0.136	0.477	-0.432
HADHA (UniProt P40939)	-0.0579	0.088	-0.331
HADHB (UniProt P55084)	-0.0335	0.077	-0.422
HAGH (UniProt Q16775)	0.41	-0.0853	0.158
HARS2 (UniProt P49590)	-0.108	-0.629	-0.0959
HARS (UniProt P12081)	-0.0978	-0.228	1.38
HAT1 (UniProt O14929)	0.352	0.375	0.265
HAUS1 (UniProt Q96CS2)	0.0371	0.00541	0.0563
HAUS2 (UniProt Q9NVX0)	-0.143	-0.261	0.0695
HAUS3 (UniProt Q68CZ6)	-0.112	-0.176	-0.102
HAUS4 (UniProt Q9H6D7)	-0.0376	0.0952	0.0479
HAUS5 (UniProt O94927)	0.0805	0.111	-0.0216
HAUS6 (UniProt Q7Z4H7)	0.0315	0.263	0.528
HAUS7 (UniProt Q99871)	0.0237	-0.0345	-0.0643
HAUS8 (UniProt Q9BT25)	0.268	0.632	1.71
HAX1 (UniProt O00165)	-1	-0.895	-0.11
HBS1L (UniProt Q9Y450)	0.179	0.0726	-0.278
HCCS (UniProt P53701)	-0.0583	-0.124	-0.0765
HCFC1 (UniProt P51610)	1.26	1.15	-0.101
HDAC1 (UniProt Q13547)	–	3.56	-0.601
